Measurements taken from the NIST ThermoML archive (doi:10.1021/je034177v).

Experiment: xn = mol fraction of the nth substance listed
Details: 101 kPa, Liquid; for speed of sound: Pulse-echo method; for mass density: Vibrating tube method

ClCCCCCCCl [1,6-dichlorohexane] + CCCCCCCCCCCC
Details	mass density [kg/m3]	speed of sound [m/s]
278.15 K, x1 = 0.0498	769.76	1355
278.15 K, x1 = 0.1003	780.41	1353.3
278.15 K, x1 = 0.1497	791.41	1352
278.15 K, x1 = 0.2527	815.84	1350.4
278.15 K, x1 = 0.4017	855.12	1350.4
278.15 K, x1 = 0.502	884.56	1351.9
278.15 K, x1 = 0.6	916.3	1355.1
278.15 K, x1 = 0.7011	952.18	1360.1
278.15 K, x1 = 0.7986	990.33	1366.8
278.15 K, x1 = 0.8998	1034.17	1376.1
278.15 K, x1 = 0.9493	1057.53	1381.5
278.15 K, x1 = 0.9691	1067.22	1383.7
278.15 K, x1 = 1	1082.7	1387.4
283.15 K, x1 = 0.0498	766.11	1335.5
283.15 K, x1 = 0.1003	776.72	1333.9
283.15 K, x1 = 0.1497	787.68	1332.7
283.15 K, x1 = 0.2527	812	1331.2
283.15 K, x1 = 0.4017	851.13	1331.4
283.15 K, x1 = 0.502	880.48	1333.3
283.15 K, x1 = 0.6	912.1	1336.7
283.15 K, x1 = 0.7011	947.86	1342
283.15 K, x1 = 0.7986	985.89	1348.9
283.15 K, x1 = 0.8998	1029.59	1358.4
283.15 K, x1 = 0.9493	1052.88	1364
283.15 K, x1 = 0.9691	1062.53	1366.2
283.15 K, x1 = 1	1077.97	1370
288.15 K, x1 = 0.0498	762.46	1315.7
288.15 K, x1 = 0.1003	773.04	1314.3
288.15 K, x1 = 0.1497	783.94	1313.2
288.15 K, x1 = 0.2527	808.17	1311.8
288.15 K, x1 = 0.4017	847.16	1312.4
288.15 K, x1 = 0.502	876.39	1314.5
288.15 K, x1 = 0.6	907.89	1318.1
288.15 K, x1 = 0.7011	943.53	1323.6
288.15 K, x1 = 0.7986	981.42	1330.7
288.15 K, x1 = 0.8998	1024.98	1340.4
288.15 K, x1 = 0.9493	1048.19	1346.1
288.15 K, x1 = 0.9691	1057.82	1348.4
288.15 K, x1 = 1	1073.22	1352.3
293.15 K, x1 = 0.0498	758.82	1296.3
293.15 K, x1 = 0.1003	769.35	1294.9
293.15 K, x1 = 0.1497	780.2	1293.9
293.15 K, x1 = 0.2527	804.33	1292.7
293.15 K, x1 = 0.4017	843.16	1293.5
293.15 K, x1 = 0.502	872.29	1295.9
293.15 K, x1 = 0.6	903.68	1299.7
293.15 K, x1 = 0.7011	939.19	1305.4
293.15 K, x1 = 0.7986	976.96	1312.8
293.15 K, x1 = 0.8998	1020.39	1322.7
293.15 K, x1 = 0.9493	1043.52	1328.4
293.15 K, x1 = 0.9691	1053.11	1330.9
293.15 K, x1 = 1	1068.47	1334.8
298.15 K, x1 = 0.0498	755.16	1276.8
298.15 K, x1 = 0.1003	765.66	1275.5
298.15 K, x1 = 0.1497	776.45	1274.6
298.15 K, x1 = 0.2527	800.48	1273.7
298.15 K, x1 = 0.4017	839.16	1274.7
298.15 K, x1 = 0.502	868.18	1277.3
298.15 K, x1 = 0.6	899.46	1281.3
298.15 K, x1 = 0.7011	934.87	1287.3
298.15 K, x1 = 0.7986	972.49	1294.8
298.15 K, x1 = 0.8998	1015.8	1304.9
298.15 K, x1 = 0.9493	1038.85	1310.8
298.15 K, x1 = 0.9691	1048.42	1313.2
298.15 K, x1 = 1	1063.74	1317.3
303.15 K, x1 = 0.0498	–	1257.6
303.15 K, x1 = 0.1003	–	1256.4
303.15 K, x1 = 0.1497	–	1255.5
303.15 K, x1 = 0.2527	–	1254.7
303.15 K, x1 = 0.4017	–	1256.1
303.15 K, x1 = 0.502	–	1258.8
303.15 K, x1 = 0.6	–	1263.1
303.15 K, x1 = 0.7011	–	1269.2
303.15 K, x1 = 0.7986	–	1277
303.15 K, x1 = 0.8998	–	1287.3
303.15 K, x1 = 0.9493	–	1293.3
303.15 K, x1 = 0.9691	–	1295.8
303.15 K, x1 = 1	–	1299.9
